Experimental data from ChEMBL document CHEMBL3885881, “DrugMatrix”.

Species: Rattus norvegicus
Experiment: DrugMatrix - Regimen: Daily Repeat
Type: toxicity, organism-based, Sprague-Dawley
Design: regimen Daily Repeat, gender Male, age 6-8 weeks
Settings: in vivo, po, route oral GAVAGE, vehicle .5 % CMC; for ALANINE AMINOTRANSFERASE / ALBUMIN / ALKALINE PHOSPHATASE / ASPARTATE AMINOTRANSFERASE / BLOOD UREA NITROGEN / CARBON DIOXIDE / CHLORIDE / CHOLESTEROL / CREATINE PHOSPHOKINASE / CREATININE / GLUCOSE / LACTATE DEHYDROGENASE / LIPASE / PHOSPHORUS / POTASSIUM / SODIUM / TOTAL BILIRUBIN / TOTAL PROTEIN / URIC ACID: tissue Plasma; for ABSOLUTE BASOPHIL / ABSOLUTE EOSINOPHIL / ABSOLUTE LYMPHOCYTE / ABSOLUTE MONOCYTE / ABSOLUTE SEGMENTED NEUTROPHIL / BASOPHIL / EOSINOPHIL / ERYTHROCYTE COUNT / HEMATOCRIT / HEMOGLOBIN / LEUKOCYTE COUNT / LYMPHOCYTE / MEAN CORPUSCULAR HEMOGLOBIN / MEAN CORPUSCULAR HEMOGLOBIN CONCENTRATION / MEAN CORPUSCULAR VOLUME / MONOCYTE / NEUTROPHIL / NUCLEATED RED BLOOD CELLS / PLATELET COUNT: tissue Blood
[1] = 88 mg/kg, 72 h, dose level Low, time 3 day
[2] = 88 mg/kg, 120 h, dose level Low, time 5 day
[3] = 2000 mg/kg, 72 h, dose level High, time 3 day

SMILES: CC(C)[C@H](N)C(=O)OCCOCn1cnc2c(=O)[nH]c(N)nc21 [VALACYCLOVIR]
- ALANINE AMINOTRANSFERASE [1]: 55 u/L
- ALBUMIN [1]: 4.33 G/DL
- ALKALINE PHOSPHATASE [1]: 415.33 u/L
- ASPARTATE AMINOTRANSFERASE [1]: 100.67 u/L
- BLOOD UREA NITROGEN [1]: 14.67 mg/dL
- CARBON DIOXIDE [1]: 27 mmol/L
- CHLORIDE [1]: 101 MEQ/L
- CHOLESTEROL [1]: 77 mg/dL
- CREATINE PHOSPHOKINASE [1]: 717.67 u/L
- CREATININE [1]: 0.2 mg/dL
- GLUCOSE [1]: 147.33 mg/dL
- LACTATE DEHYDROGENASE [1]: 667.67 u/L
- LIPASE [1]: 10.67 u/L
- PHOSPHORUS [1]: 12.5 mg/dL
- POTASSIUM [1]: 6.48 MEQ/L
- SODIUM [1]: 144.3 MEQ/L
- TOTAL BILIRUBIN [1]: 0.2 mg/dL
- TOTAL PROTEIN [1]: 6.23 G/DL
- URIC ACID [1]: 1.4 mg/dL
- ABSOLUTE BASOPHIL [2]: 0 CELLS/uL
- ABSOLUTE EOSINOPHIL [2]: 94 CELLS/uL
- ABSOLUTE LYMPHOCYTE [2]: 9072.33 CELLS/uL
- ABSOLUTE MONOCYTE [2]: 117.33 CELLS/uL
- ABSOLUTE SEGMENTED NEUTROPHIL [2]: 1283 CELLS/uL
- BASOPHIL [2]: 0%
- EOSINOPHIL [2]: 0.67%
- ERYTHROCYTE COUNT [2]: 5.42 x10E6/uL
- HEMATOCRIT [2]: 33.93%
- HEMOGLOBIN [2]: 13.17 G/DL
- LEUKOCYTE COUNT [2]: 10.57 x10E3/uL
- LYMPHOCYTE [2]: 86.33%
- MEAN CORPUSCULAR HEMOGLOBIN [2]: 24.3 pg
- MEAN CORPUSCULAR HEMOGLOBIN CONCENTRATION [2]: 38.83 G/DL
- MEAN CORPUSCULAR VOLUME [2]: 62.57 fL
- MONOCYTE [2]: 1.33%
- NEUTROPHIL [2]: 11.67%
- NUCLEATED RED BLOOD CELLS [2]: 0 /100WBC
- PLATELET COUNT [2]: 1317.67 x10E3/uL
- ALANINE AMINOTRANSFERASE [2]: 58.33 u/L
- ALBUMIN [2]: 4.43 G/DL
- ALKALINE PHOSPHATASE [2]: 393 u/L
- ASPARTATE AMINOTRANSFERASE [2]: 91 u/L
- BLOOD UREA NITROGEN [2]: 18 mg/dL
- CARBON DIOXIDE [2]: 28.33 mmol/L
- CHLORIDE [2]: 103.33 MEQ/L
- CHOLESTEROL [2]: 75.33 mg/dL
- CREATINE PHOSPHOKINASE [2]: 215.67 u/L
- CREATININE [2]: 0.21 mg/dL
- GLUCOSE [2]: 137.33 mg/dL
- LACTATE DEHYDROGENASE [2]: 175.67 u/L
- LIPASE [2]: 9.33 u/L
- PHOSPHORUS [2]: 13.03 mg/dL
- POTASSIUM [2]: 7.1 MEQ/L
- SODIUM [2]: 147.83 MEQ/L
- TOTAL BILIRUBIN [2]: 0.23 mg/dL
- TOTAL PROTEIN [2]: 6.33 G/DL
- URIC ACID [2]: 1.57 mg/dL
- ABSOLUTE BASOPHIL [3]: 0 CELLS/uL
- ABSOLUTE EOSINOPHIL [3]: 83 CELLS/uL
- ABSOLUTE LYMPHOCYTE [3]: 8794.67 CELLS/uL
- ABSOLUTE MONOCYTE [3]: 95 CELLS/uL
- ABSOLUTE SEGMENTED NEUTROPHIL [3]: 994 CELLS/uL
- BASOPHIL [3]: 0%
- EOSINOPHIL [3]: 1%
- ERYTHROCYTE COUNT [3]: 4.99 x10E6/uL
- HEMATOCRIT [3]: 31.53%
- HEMOGLOBIN [3]: 12.63 G/DL
- LEUKOCYTE COUNT [3]: 9.97 x10E3/uL
- LYMPHOCYTE [3]: 88%
- MEAN CORPUSCULAR HEMOGLOBIN [3]: 25.3 pg
- MEAN CORPUSCULAR HEMOGLOBIN CONCENTRATION [3]: 40.1 G/DL
- MEAN CORPUSCULAR VOLUME [3]: 63.07 fL
- MONOCYTE [3]: 1%
- NEUTROPHIL [3]: 10%
- NUCLEATED RED BLOOD CELLS [3]: 0 /100WBC
- PLATELET COUNT [3]: 1175 x10E3/uL
- ALANINE AMINOTRANSFERASE [3]: 43.33 u/L
- ALBUMIN [3]: 4 G/DL
- ALKALINE PHOSPHATASE [3]: 329.67 u/L
- ASPARTATE AMINOTRANSFERASE [3]: 81.67 u/L
- BLOOD UREA NITROGEN [3]: 79.33 mg/dL
- CARBON DIOXIDE [3]: 22.67 mmol/L
- CHLORIDE [3]: 101 MEQ/L
- CHOLESTEROL [3]: 118.67 mg/dL
- CREATINE PHOSPHOKINASE [3]: 274.33 u/L
- CREATININE [3]: 1.22 mg/dL
- GLUCOSE [3]: 158.33 mg/dL
- LACTATE DEHYDROGENASE [3]: 182 u/L
- LIPASE [3]: 10.67 u/L
- PHOSPHORUS [3]: 10.07 mg/dL
- POTASSIUM [3]: 5.9 MEQ/L
- SODIUM [3]: 143.87 MEQ/L
- TOTAL BILIRUBIN [3]: 0.23 mg/dL
- TOTAL PROTEIN [3]: 6.3 G/DL
- URIC ACID [3]: 1.2 mg/dL
